Assay results as given in PMC12680861, “Comparative analysis of LJ-4378 and tirzepatide in mouse models of obesity and weight regain” (Archives of Pharmacal Research, 2025).
Where two headings read alike, the source gives them in different places.

What was measured:
[1] = Plasma protein binding, Rapid Equilibrium Dialysis (RED); assay type: in vitro ADME, mouse; details: mouse, plasma (100%, sodium citrate), pH 7.4, 37 °C, read-out: Plasma free fraction (% Free), Mouse
Description: (§1) The plasma protein binding of LJ-4378 was evaluated using the Rapid Equilibrium Dialysis (RED) method with 100% plasma from human (Biochemed, BC22089NCP), rat (Innovative, IRT-N), and mouse (Biochemed, 029-APSC-MP), all treated with sodium citrate as an anticoagulant. The RED device (ThermoFisher Scientific, #89809) and reusable base plate (ThermoFisher Scientific, #89811) were used with an 8 K MWCO membrane. Test compounds were added to plasma at a final concentration of 10 μM and dialyzed against phosphate-buffered saline (PBS, pH 7.4; Hyclone, #SH30256.01) at 37 °C for 4 h. After incubation, equal volumes of plasma and PBS samples were mixed with blank PBS and blank plasma, respectively, followed by the addition of acetonitrile containing chlorpropamide (TRC, C424800) as the internal standard. […] All measurements were performed in duplicate with a deviation of less than 15% between replicates. The free fraction (% Free) was calculated as (concentration in buffer chamber/concentration in plasma chamber) × 100, and the bound fraction (% Bound) was obtained by subtracting % Free from 100. In cases where measurements were unstable, deviations greater than 15% were allowed.

[2] = as above; assay type: in vitro ADME, rat; details: rat, plasma (100%, sodium citrate), pH 7.4, 37 °C, read-out: Plasma free fraction (% Free), Rat
Description: as §1

[3] = as above; assay type: in vitro ADME, human; details: human, plasma (100%, sodium citrate), pH 7.4, 37 °C, read-out: Plasma free fraction (% Free), Human
Description: as §1

CYP1A2 = target: T1, CYP1A2 (Homo sapiens, UniProt P05177); test: CYP enzyme inhibition in pooled human liver microsomes (phenacetin substrate); details: human, pooled human liver microsomes, pH 7.4
T1 sequence (P05177 1-516): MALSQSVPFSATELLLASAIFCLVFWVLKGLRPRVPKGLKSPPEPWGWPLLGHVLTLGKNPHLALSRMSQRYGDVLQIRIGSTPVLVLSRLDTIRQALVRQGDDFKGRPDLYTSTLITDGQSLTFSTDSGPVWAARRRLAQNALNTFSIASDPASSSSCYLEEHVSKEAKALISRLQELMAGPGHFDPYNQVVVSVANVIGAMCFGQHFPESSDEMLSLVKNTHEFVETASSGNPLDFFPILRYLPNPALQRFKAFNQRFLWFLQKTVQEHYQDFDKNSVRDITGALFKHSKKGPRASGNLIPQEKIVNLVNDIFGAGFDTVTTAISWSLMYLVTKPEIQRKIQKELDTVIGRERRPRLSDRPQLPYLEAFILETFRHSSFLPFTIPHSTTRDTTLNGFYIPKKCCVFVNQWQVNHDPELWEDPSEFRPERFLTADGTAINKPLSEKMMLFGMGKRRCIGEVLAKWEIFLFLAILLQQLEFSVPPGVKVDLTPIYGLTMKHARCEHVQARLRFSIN
Description: (§2) Cytochrome 450 (CYP) enzyme inhibition was evaluated using pooled human liver microsomes (Corning, #452117). […] Substrates and corresponding metabolites for each CYP isoform were as follows: phenacetin and acetaminophen for CYP1A2 (Sigma Aldrich, #77440 and A7085, respectively), diclofenac and 4'-hydroxydiclofenac for CYP2C9 (Sigma Aldrich, D6899; TRC, H825225), S-mephenytoin and 4'-hydroxymephenytoin for CYP2C19 (Sigma Aldrich, UC175; Santacruz, sc210197), dextromethorphan and dextrorphan for CYP2D6 (Sigma Aldrich, #81091 and UC205), and midazolam and 1'-hydroxymidazolam for CYP3A4 (KFDA; Sigma Aldrich, UC430).
(§3) Samples were preincubated at 37 °C for 5 min, and the reaction was initiated by the addition of the NADPH regeneration system, followed by incubation at 37 °C for 15 min. The reaction was terminated by adding acetonitrile containing the internal standard, and centrifuged at 15,000 rpm for 5 min at 4 °C. The supernatant was analyzed by LC–MS/MS using a Nexera XR system (Shimadzu, Japan) coupled with a TSQ Vantage mass spectrometer (Thermo, USA). […] Metabolites were quantified in multiple reaction monitoring (MRM) mode with Xcalibur software (version 4.4).
(§4) All experiments were performed in duplicate with variability ≤ 15%. The percent activity of each CYP enzyme was calculated based on metabolite formation relative to the no-inhibitor control.

CYP2C19 = CYP2C19 (Homo sapiens, UniProt P33261); test: CYP enzyme inhibition in pooled human liver microsomes (S-mephenytoin substrate); details: human, pooled human liver microsomes, pH 7.4
CYP2C19, sequence (P33261 whole entry): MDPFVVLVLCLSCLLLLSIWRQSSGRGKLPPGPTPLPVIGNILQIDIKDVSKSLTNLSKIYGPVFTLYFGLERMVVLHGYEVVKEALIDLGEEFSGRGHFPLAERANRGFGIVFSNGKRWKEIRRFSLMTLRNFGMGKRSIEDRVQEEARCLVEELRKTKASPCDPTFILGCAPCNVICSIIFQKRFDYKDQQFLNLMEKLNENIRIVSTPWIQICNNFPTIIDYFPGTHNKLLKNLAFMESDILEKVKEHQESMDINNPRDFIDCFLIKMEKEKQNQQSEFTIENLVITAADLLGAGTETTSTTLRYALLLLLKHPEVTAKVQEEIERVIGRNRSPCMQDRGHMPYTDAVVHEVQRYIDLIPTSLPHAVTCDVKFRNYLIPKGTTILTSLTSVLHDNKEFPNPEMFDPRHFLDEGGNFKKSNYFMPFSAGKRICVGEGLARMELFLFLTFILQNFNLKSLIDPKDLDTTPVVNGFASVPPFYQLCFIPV
Description: as §2, §3, §4

CYP2C9 = CYP2C9 (Homo sapiens, UniProt P11712); test: CYP enzyme inhibition in pooled human liver microsomes (diclofenac substrate); details: human, pooled human liver microsomes, pH 7.4
CYP2C9, sequence (P11712 whole entry): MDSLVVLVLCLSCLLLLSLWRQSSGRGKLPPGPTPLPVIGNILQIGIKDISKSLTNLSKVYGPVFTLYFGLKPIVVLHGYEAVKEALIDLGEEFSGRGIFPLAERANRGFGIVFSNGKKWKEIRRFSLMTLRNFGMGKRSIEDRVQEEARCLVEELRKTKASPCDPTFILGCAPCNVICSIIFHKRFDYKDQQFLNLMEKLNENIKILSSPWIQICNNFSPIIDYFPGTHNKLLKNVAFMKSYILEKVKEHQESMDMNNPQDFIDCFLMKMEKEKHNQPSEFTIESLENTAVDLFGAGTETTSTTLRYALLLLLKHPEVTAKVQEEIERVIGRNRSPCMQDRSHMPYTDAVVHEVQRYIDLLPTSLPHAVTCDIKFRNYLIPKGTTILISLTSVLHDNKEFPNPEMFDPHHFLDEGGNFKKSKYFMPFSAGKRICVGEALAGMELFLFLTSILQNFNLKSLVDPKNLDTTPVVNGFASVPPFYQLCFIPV
Description: as §2, §3, §4

Plasma stability assay [4] = assay type: in vitro ADME, human; details: human, plasma (100%, sodium citrate), 37 °C
Description: (§5) The plasma stability of LJ-4378 was evaluated using 100% plasma obtained from human (Biochemed, BC22089NCP, sodium citrate), rat (Innovative, IRT-N, sodium citrate), and mouse (Biochemed, 029-APSC-MP, sodium citrate). 10 Μm of LJ-4378 was added to the plasma, and samples were incubated at 37 °C for 0, 30, and 120 min. At each time point, an aliquot of the plasma was removed and mixed with acetonitrile containing the internal standard, chlorpropamide (TRC, C424800). […] The supernatant was injected into the LC–MS/MS system for quantification of the remaining compound. Analysis was performed using a Nexera XR system (Shimadzu, Japan) with a TSQ Vantage mass spectrometer (Thermo, USA). […] Data acquisition was conducted in MRM mode using Xcalibur software (version 4.4). All experiments were performed in duplicate with a deviation within 15%, and the percentage of compound remaining (% Remaining) at each time point was calculated relative to the non-incubated control sample. For quality control, procaine and enalapril (each at 10 μM) were used as reference compounds and were confirmed to fall within acceptable ranges.

Plasma stability assay [5] = assay type: in vitro ADME, rat; details: rat, plasma (100%, sodium citrate), 37 °C; for remaining at 0.5 h, 10 μM: 30 min, read-out: % Remaining compound, Rat plasma 30 min; for remaining at 2 h, 10 μM: 120 min, read-out: % Remaining compound, Rat plasma 120 min
Description: as §5

Plasma stability assay [6] = assay type: in vitro ADME, mouse; details: mouse, plasma (100%, sodium citrate), 37 °C; for remaining at 0.5 h, 10 μM: 30 min, read-out: % Remaining compound, Mouse plasma 30 min; for remaining at 2 h, 10 μM: 120 min, read-out: % Remaining compound, Mouse plasma 120 min
Description: as §5

Question: With `CC(=O)CC(c1ccccc1)c1c(O)c2ccccc2oc1=O` (stereo not drawn) [Warfarin] as the molecule, how does the fraction unbound at 4 h, 10 μM [1] read?
Answer: 0.062

Question: What about the fraction unbound at 4 h, 10 μM [2] of the same molecule?
Answer: 0.01

Question: And the fraction unbound at 4 h, 10 μM [3]?
Answer: 0.006

Question: For `CC(=O)N1CCN(c2ccc(OCC3COC(Cn4ccnc4)(c4ccc(Cl)cc4Cl)O3)cc2)CC1` (stereo not drawn) [Ketoconazole, ketoconazole, reference compound], which activity at 15 min, 10 µM (CYP1A2) is on record?
Answer: 98.3%

Question: And the activity at 15 min, 10 µM (CYP2C19)?
Answer: > 100%

Question: And the activity at 15 min, 10 µM (CYP2C9)?
Answer: 98%

Question: What does the source list for `C[C@@H]1C[C@H]2[C@@H]3CCC4=CC(=O)C=C[C@]4(C)[C@@]3(F)[C@@H](O)C[C@]2(C)[C@@]1(O)C(=O)CO` [Dexamethasone]?
Answer: fraction unbound at 4 h, 10 μM [1]: 0.297; fraction unbound at 4 h, 10 μM [2]: 0.222; fraction unbound at 4 h, 10 μM [3]: 0.359

Question: For `CCN(CC)CCOC(=O)c1ccc(N)cc1` [Procaine, procaine], which remaining at 5 min, 10 μM (Plasma stability assay [4]; 5 min (printed in the 30 min column), read-out: % Remaining compound, Human plasma 5 min) is on record?
Answer: 1.2%

Question: And the remaining at 10 min, 10 μM (Plasma stability assay [4]; 10 min (printed in the 120 min column), read-out: % Remaining compound, Human plasma 10 min)?
Answer: < 1%

Question: And the remaining at 0.5 h, 10 μM (Plasma stability assay [5])?
Answer: 85.2%

Question: And the remaining at 2 h, 10 μM (Plasma stability assay [5])?
Answer: 45.2%

Question: And the remaining at 0.5 h, 10 μM (Plasma stability assay [6])?
Answer: 7%

Question: What about the remaining at 2 h, 10 μM (Plasma stability assay [6]) of the same molecule?
Answer: < 1%

Question: Which results are given for `CCOC(=O)[C@H](CCc1ccccc1)N[C@@H](C)C(=O)N1CCC[C@H]1C(=O)O` [Enalapril, enalapril]?
Answer: remaining at 0.5 h, 10 μM (Plasma stability assay [4]; 30 min, read-out: % Remaining compound, Human plasma 30 min): > 100%; remaining at 2 h, 10 μM (Plasma stability assay [4]; 120 min, read-out: % Remaining compound, Human plasma 120 min): 95.9%; remaining at 0.5 h, 10 μM (Plasma stability assay [5]): 34.5%; remaining at 2 h, 10 μM (Plasma stability assay [5]): 1.4%; remaining at 0.5 h, 10 μM (Plasma stability assay [6]): 66%; remaining at 2 h, 10 μM (Plasma stability assay [6]): 26.3%
